Results as given in ChEMBL document CHEMBL1201862, “PubChem BioAssay data set” (2004).
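Method: 48-hour compound exposure of cells in 96-well plates, five concentrations, linear interpolation of endpoints. At the GI50, growth is halved.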 Activity calls are given as the source filed them. Rule as the data show it: active = GI50 up to about 1.1 µM and inactive = higher.

Assays:
Test in all cases: inhibition of tumour cell growth, NCI panel, 48 h
A498 = system: A498
ACHN = system: ACHN
COLO 205 = system: COLO 205
EKVX = system: EKVX
HCT-15 = system: HCT-15
KM12 = system: KM12
MCF7 = system: MCF7
NCI/ADR-RES = system: NCI/ADR-RES
OVCAR-4 = system: OVCAR-4
OVCAR-5 = system: OVCAR-5
OVCAR-8 = system: OVCAR-8
PC-3 = system: PC-3
RXF 393 = system: RXF 393
SF-268 = system: SF-268
SK-OV-3 = system: SK-OV-3
SN12C = system: SN12C
UO-31 = system: UO-31
CCRF-CEM = system: CCRF-CEM
NCI-H460 = system: NCI-H460
OVCAR-3 = system: OVCAR-3

SMILES | GI50 (A498) | GI50 (ACHN) | GI50 (COLO 205) | GI50 (EKVX) | GI50 (HCT-15) [µM] | GI50 (KM12) | GI50 (MCF7) | GI50 (NCI/ADR-RES) | GI50 (OVCAR-4) | GI50 (OVCAR-5) | GI50 (OVCAR-8) | GI50 (PC-3) | GI50 (RXF 393) | GI50 (SF-268) | GI50 (SK-OV-3) | GI50 (SN12C) | GI50 (UO-31) | GI50 (CCRF-CEM) | GI50 (NCI-H460) | GI50 (OVCAR-3)
CCOC(=O)C1(C/C=C\CBr)CCCC1=O (stereo not drawn) | > 100 µM (inactive) | 20.4 µM (inactive) | 37.3 µM (inactive) | > 100 µM (inactive) | 26.9 | 32.1 µM (inactive) | 11.5 µM (inactive) | 25.5 µM (inactive) | 34.4 µM (inactive) | 31.2 µM (inactive) | 30.1 µM (inactive) | 36.7 µM (inactive) | 16.6 µM (inactive) | 32.5 µM (inactive) | 83.9 µM (inactive) | 18.4 µM (inactive) | 21.9 µM (inactive) | – | – | –
CC#CC(O)(C(=O)OC1CC2CCC(C1)N2C)C1CCCC1 (stereo not drawn) | > 100 µM (inactive) | > 100 µM (inactive) | > 100 µM (inactive) | > 100 µM (inactive) | > 100 | > 100 µM (inactive) | > 100 µM (inactive) | > 100 µM (inactive) | > 100 µM (inactive) | > 100 µM (inactive) | > 100 µM (inactive) | > 100 µM (inactive) | > 100 µM (inactive) | > 100 µM (inactive) | > 100 µM (inactive) | > 100 µM (inactive) | > 100 µM (inactive) | > 100 µM (inactive) | > 100 µM (inactive) | > 100 µM (inactive)
S=c1sc2ccccc2n1CN1CCN(Cc2ccccc2)CC1 | > 100 µM (inactive) | > 100 µM (inactive) | > 100 µM (inactive) | > 100 µM (inactive) | > 100 | > 100 µM (inactive) | > 100 µM (inactive) | > 100 µM (inactive) | > 100 µM (inactive) | > 100 µM (inactive) | > 100 µM (inactive) | > 100 µM (inactive) | > 100 µM (inactive) | > 100 µM (inactive) | > 100 µM (inactive) | > 100 µM (inactive) | > 100 µM (inactive) | > 100 µM (inactive) | > 100 µM (inactive) | > 100 µM (inactive)
Clc1ccc(C2Nc3ccccc3C3=NCCN32)cc1 (stereo not drawn) | 22.9 µM (inactive) | 35.3 µM (inactive) | 13 µM (inactive) | 25.6 µM (inactive) | 34.3 | 18.3 µM (inactive) | 22.3 µM (inactive) | 19.5 µM (inactive) | 30.7 µM (inactive) | 29.7 µM (inactive) | 18.3 µM (inactive) | 55.3 µM (inactive) | 21.1 µM (inactive) | 20.7 µM (inactive) | 26.1 µM (inactive) | 29.8 µM (inactive) | 27.3 µM (inactive) | 28.4 µM (inactive) | 16.3 µM (inactive) | 33.5 µM (inactive)
CCCCI(O)OS(=O)(=O)c1ccc(C)cc1 | > 100 µM (inactive) | > 100 µM (inactive) | > 100 µM (inactive) | 38 µM (inactive) | > 100 | 56.8 µM (inactive) | > 100 µM (inactive) | 29.6 µM (inactive) | > 100 µM (inactive) | > 100 µM (inactive) | > 100 µM (inactive) | > 100 µM (inactive) | > 100 µM (inactive) | > 100 µM (inactive) | > 100 µM (inactive) | > 100 µM (inactive) | 23.9 µM (inactive) | 53.5 µM (inactive) | – | > 100 µM (inactive)
CC(=N\N)/C(C)=N/N=C(C)/C(C)=N/N=C(C)/C(C)=N/N=C(C)/C(C)=N/N | > 100 µM (inactive) | – | > 100 µM (inactive) | > 100 µM (inactive) | > 100 | > 100 µM (inactive) | > 100 µM (inactive) | > 100 µM (inactive) | > 100 µM (inactive) | > 100 µM (inactive) | > 100 µM (inactive) | > 100 µM (inactive) | > 100 µM (inactive) | > 100 µM (inactive) | > 100 µM (inactive) | > 100 µM (inactive) | > 100 µM (inactive) | > 100 µM (inactive) | > 100 µM (inactive) | > 100 µM (inactive)
CCOC(=O)c1nc2ccc(C(F)(F)F)cc2nc1Nc1ccc(Cl)c(Cl)c1 | > 100 µM (inactive) | 97.1 µM (inactive) | > 100 µM (inactive) | > 100 µM (inactive) | 94.4 | 75.9 µM (inactive) | > 100 µM (inactive) | > 100 µM (inactive) | – | > 100 µM (inactive) | 74.5 µM (inactive) | > 100 µM (inactive) | > 100 µM (inactive) | > 100 µM (inactive) | > 100 µM (inactive) | > 100 µM (inactive) | > 100 µM (inactive) | 86.1 µM (inactive) | > 100 µM (inactive) | 38.3 µM (inactive)
CCn1cc2c(=O)n3ncn(-c4ccc(Br)cc4)c3nc2n1 | > 100 µM (inactive) | > 100 µM (inactive) | > 100 µM (inactive) | > 100 µM (inactive) | 93.8 | > 100 µM (inactive) | > 100 µM (inactive) | > 100 µM (inactive) | > 100 µM (inactive) | > 100 µM (inactive) | 78.9 µM (inactive) | > 100 µM (inactive) | > 100 µM (inactive) | > 100 µM (inactive) | > 100 µM (inactive) | > 100 µM (inactive) | > 100 µM (inactive) | > 100 µM (inactive) | – | > 100 µM (inactive)
C[C@]12CC[C@H](O)CC1=CC[C@@H]1[C@@H]2CC[C@]2(C)C(=O)/C(=C/c3ccc([N+](=O)[O-])cc3)C[C@@H]12 | 13.5 µM (inactive) | 13.2 µM (inactive) | – | 8.91 µM (inactive) | 28.8 | 33.7 µM (inactive) | 32.2 µM (inactive) | 16.2 µM (inactive) | 8 µM (inactive) | 19.2 µM (inactive) | 3.15 µM (inactive) | 10.4 µM (inactive) | 8.95 µM (inactive) | 6.85 µM (inactive) | 8.93 µM (inactive) | 11.2 µM (inactive) | 11 µM (inactive) | > 100 µM (inactive) | 23.8 µM (inactive) | 15.2 µM (inactive)
BrC(=C(c1ccc(OC2CCCCO2)cc1)c1ccc(OC2CCCCO2)cc1)c1ccccc1 (stereo not drawn) | > 100 µM (inactive) | – | > 100 µM (inactive) | > 100 µM (inactive) | > 100 | > 100 µM (inactive) | > 100 µM (inactive) | > 100 µM (inactive) | > 100 µM (inactive) | – | > 100 µM (inactive) | > 100 µM (inactive) | > 100 µM (inactive) | > 100 µM (inactive) | > 100 µM (inactive) | > 100 µM (inactive) | > 100 µM (inactive) | > 100 µM (inactive) | > 100 µM (inactive) | > 100 µM (inactive)
Oc1c(NCn2nc(CCCCCCCCc3nn(CNc4ccc5ccccc5c4O)c(=S)o3)oc2=S)ccc2ccccc12 | > 100 µM (inactive) | > 100 µM (inactive) | > 100 µM (inactive) | > 100 µM (inactive) | 35.6 | 28.2 µM (inactive) | 67.6 µM (inactive) | 44.5 µM (inactive) | 76.2 µM (inactive) | 43.9 µM (inactive) | – | > 100 µM (inactive) | 30.1 µM (inactive) | > 100 µM (inactive) | > 100 µM (inactive) | > 100 µM (inactive) | 98.2 µM (inactive) | – | > 100 µM (inactive) | –
CN1C(=O)C(O)CC1c1ccccc1C(F)(F)F (stereo not drawn) | > 100 µM (inactive) | > 100 µM (inactive) | > 100 µM (inactive) | > 100 µM (inactive) | > 100 | > 100 µM (inactive) | > 100 µM (inactive) | > 100 µM (inactive) | > 100 µM (inactive) | > 100 µM (inactive) | > 100 µM (inactive) | > 100 µM (inactive) | > 100 µM (inactive) | – | > 100 µM (inactive) | > 100 µM (inactive) | > 100 µM (inactive) | > 100 µM (inactive) | > 100 µM (inactive) | > 100 µM (inactive)
CC(CO)CCC(O)C(C)(O)C1CCC2(O)C3=CC(=O)C4CC(O)C(O)CC4(C)C3CCC12C (stereo not drawn) | > 100 µM (inactive) | > 100 µM (inactive) | > 100 µM (inactive) | > 100 µM (inactive) | > 100 | > 100 µM (inactive) | > 100 µM (inactive) | > 100 µM (inactive) | > 100 µM (inactive) | > 100 µM (inactive) | > 100 µM (inactive) | > 100 µM (inactive) | > 100 µM (inactive) | – | > 100 µM (inactive) | > 100 µM (inactive) | > 100 µM (inactive) | 81.3 µM (inactive) | > 100 µM (inactive) | > 100 µM (inactive)
CC(C)(C)OC(=O)[C@H]1CCC(=S)N1Cc1ccccc1 | > 100 µM (inactive) | > 100 µM (inactive) | > 100 µM (inactive) | > 100 µM (inactive) | > 100 | > 100 µM (inactive) | > 100 µM (inactive) | > 100 µM (inactive) | > 100 µM (inactive) | > 100 µM (inactive) | > 100 µM (inactive) | > 100 µM (inactive) | > 100 µM (inactive) | – | > 100 µM (inactive) | > 100 µM (inactive) | > 100 µM (inactive) | > 100 µM (inactive) | > 100 µM (inactive) | > 100 µM (inactive)
O=c1[nH]nc(Cc2ccc(Cl)cc2)n1/N=C\CC/C=N\n1c(Cc2ccc(Cl)cc2)n[nH]c1=O | > 69.5 µM (inactive) | 56 µM (inactive) | > 100 µM (inactive) | 21.3 µM (inactive) | 35.2 | > 100 µM (inactive) | 21.6 µM (inactive) | 22.2 µM (inactive) | > 81.3 µM (inactive) | > 100 µM (inactive) | 14 µM (inactive) | > 51.9 µM (inactive) | 15.1 µM (inactive) | 13.5 µM (inactive) | 31.5 µM (inactive) | 59.2 µM (inactive) | > 100 µM (inactive) | – | > 100 µM (inactive) | > 100 µM (inactive)
